According to patent publication US4031243A, “2-(4-Isobutyl phenyl)butyric acid, salts thereof, and pharmaceutical compositions containing the same” (priority 1975, dated 1977):

How the values were obtained:
gastric lining = test: General statements on toxicity, gastric tolerance and activity; settings: capsule, 100 to 300 milligrams, with talcum and magnesium stearate
[1] = Dissolution of capsule in the stomach (statement); type: physicochemical; settings: 100 to 300 milligrams, with talcum and magnesium stearate
granulation tissue = test: Antiinflammatory activity: Formation of granulation tissue in the rat; type: in vivo; settings: oral; for ED50: Rattus norvegicus, 50% inhibition of granulation tissue, lineal regression; for Weight of granulated tissue ± SEM: control 198 ± 3.63, in mg (unit assumed)
Source text: Antiinflammatory activity: Formation of granulation tissue in the rat
Described by N. Pisanti, G. Volterra and A. Meli, in a paper entitled "Pharmacological data on a new antiinflammatory agent", published in Il Farmaco(Ed. Scientifica) vol. 38, page 51 (1973).
ED50 in this test represents the effective dose in milligrams per kilogram of body weight that is required to inhibit by an increment of 50% the formulation of granulation tissue in the rat.

[2] = Analgesic activity: Hot-plate test; type: in vivo; settings: for Reaction time Half ± SEM: control 103.3 ± 7.9
[3] = test system: edema produced by administration of carageenin; test: animal or person; type: in vivo, rat; design: Increment of Edema ± SEM: unit not given here; settings: for ED50: Rattus norvegicus, lineal regression; for "+" animals, printed in place of increment of edema: rat, in vivo
Source text: Antiinflammatory activity: Acute rat paw edema test Described by C. H. Winter, E. A. Risley and G. W. Nuss in a paper entitled "[…]-induced edema in hind paw of the rat as an assay for antiinflammatory drugs", published in Proc. Soc. Exp. Biol. Med., volume 111, page 544 (1962). ED50 in this test represents the effective dose in milligrams per kilogram of body weight that is required to inhibit edema produced by administration of carageenin to the rat.

[4] = Analgesic activity: Tail pinch test in the mouse; type: in vivo; settings: for ED50: Mus musculus; for Animals Not protected, TOTALS / Animals Protected, TOTALS: all doses (60-240 mg/kg)
Source text: Analgesic activity: Tail pinch test in the mouse Described by F. Haffner in Deutsch. med. […] ED50 in this test represents the effective dose in milligrams per kilogram of body weight that is required to increase the reaction time by a factor of at least 3 over the reaction time of the same animal before the test substance had been administered.

mucosa = test: Ulcerogenic assay; type: in vivo, rat; settings: 20 rats, scale 0 no ulcers to 3 ulceration with craters
Source text: (§1) Described by S. Wong, J. F. Gardocki and T. P. Pruss in J. Pharm. Exper.
(§2) UD50 represents the dose in milligrams per kilogram of body weight that is based upon a point scale as follows:
(§3) 3 -- ulceration with craters
(§4) U.S. 50 Half ulcerogenic dose -- dose which produces 50% of the
(§5) maximum possible score points in one group of rats.

Ulcerogenic assay = type: in vivo, rat; settings: rat, in vivo; dose which produces 50% of the maximum possible score points in one group of rats; lineal regression; read-out: UD50 (the source's name)
Source text: as §1, §2, §3, §4, §5

[5] = 144 h, Table 2, oral, administration 6 days
[6] = Table 1, oral, 120 mg/kg, control 14.80 ± 0.94
[7] = Table 1, oral, 180 mg/kg, control 14.80 ± 0.94
[8] = Table 1, oral, 240 mg/kg, control 14.80 ± 0.94
[9] = Table 2, oral, 120 mg/kg, administration 6 days
[10] = Table 2, oral, 120 mg/kg, administration 6 days, control 15.35 ± 0.31
[11] = Table 2, oral, 180 mg/kg, administration 6 days
[12] = Table 2, oral, 180 mg/kg, administration 6 days, control 15.35 ± 0.31
[13] = Table 2, oral, 240 mg/kg, administration 6 days
[14] = Table 2, oral, 240 mg/kg, administration 6 days, control 15.35 ± 0.31
[15] = Table 3, I.P., 120 mg/kg, control 12.50 ± 1.66

CCC(C(=O)[O-])c1ccc(CC(C)C)cc1.[Na+] (centres unmarked)
gastric upset or irritation (gastric lining): without producing a gastric upset or irritation | dissolution in the stomach [1]: dissolves well in the stomach

CCC(C(=O)O)c1ccc(CC(C)C)cc1 (centres unmarked) [2-(4-Isobutylphenyl)butyric acid, 2-(4-isobutylphenyl) butyric acid]
ED50 (granulation tissue): 252 mg/kg | % Inhibition (granulation tissue; 120 mg/kg): 11.11% | Weight of granulated tissue ± SEM (granulation tissue; 120 mg/kg): 176 ± 13.09 | % Inhibition (granulation tissue; 180 mg/kg): 34.34% | Weight of granulated tissue ± SEM (granulation tissue; 180 mg/kg): 130 ± 8.54 | % Inhibition (granulation tissue; 240 mg/kg): 46.46% | Weight of granulated tissue ± SEM (granulation tissue; 240 mg/kg): 106 ± 9.97 | % Increase of Reaction time ([2]; oral, 60 mg/kg): 7.0% | Reaction time Half ± SEM ([2]; oral, 60 mg/kg): 110.6 ± 7.0 s | % Increase of Reaction time ([2]; oral, 120 mg/kg): 35.0% | Reaction time Half ± SEM ([2]; oral, 120 mg/kg): 139.5 ± 10.7 s | % Increase of Reaction time ([2]; oral, 180 mg/kg): 37.0% | Reaction time Half ± SEM ([2]; oral, 180 mg/kg): 142.3 ± 7.6 s | % Increase of Reaction time ([2]; oral, 240 mg/kg): 78.4% | Reaction time Half ± SEM ([2]; oral, 240 mg/kg): 184.3 ± 13.1 s | ED50 ([2]; oral, increase by 50% of reaction time, lineal regression, read-out: ED50): 162 mg/kg | ED50 [3, 5]: 204 mg/kg | ED50 ([3]; ip, Table 3, I.P.): 133 mg/kg | ED50 ([3]; Table 1, oral): 116 mg/kg | % Inhibition ([3]; Table 1, oral, 120 mg/kg): 51.01% | Increment of Edema ± SEM [3, 6]: 7.25 ± 1.00 | % Inhibition ([3]; Table 1, oral, 180 mg/kg): 58.10% | Increment of Edema ± SEM [3, 7]: 6.20 ± 0.84 | % Inhibition ([3]; Table 1, oral, 240 mg/kg): 66.21% | Increment of Edema ± SEM [3, 8]: 5.00 ± 0.97 | % Inhibition [3, 9]: 24.03% | Increment of Edema ± SEM [3, 10]: 11.66 ± 0.67 | % Inhibition [3, 11]: 40.97% | Increment of Edema ± SEM [3, 12]: 9.06 ± 0.39 | % Inhibition [3, 13]: 60.06% | Increment of Edema ± SEM [3, 14]: 6.13 ± 0.35 | % Inhibition ([3]; Table 3, I.P., 120 mg/kg): 49.36% | Increment of Edema ± SEM [3, 15]: 6.33 ± 0.88 | % Inhibition ([3]; Table 3, I.P., 240 mg/kg): 64.00% | Increment of Edema ± SEM ([3]; Table 3, I.P., 240 mg/kg, control 12.50 ± 1.66): 4.50 ± 1.05 | % Inhibition ([3]; Table 3, I.P., 360 mg/kg): 92.96% | Increment of Edema ± SEM ([3]; Table 3, I.P., 360 mg/kg, control 12.50 ± 1.66): 0.88 ± 0.26 | ED50 ([4]; oral, reaction time increased by factor of at least 3, lineal regression, read-out: ED50): 118 mg/kg | % Protection ([4]; oral, 60 mg/kg): 15% | Animals Not protected ([4]; oral, 60 mg/kg): 17 | Animals Protected ([4]; oral, 60 mg/kg): 3 | % Protection ([4]; oral, 120 mg/kg): 50% | Animals Not protected ([4]; oral, 120 mg/kg): 10 | Animals Protected ([4]; oral, 120 mg/kg): 10 | % Protection ([4]; oral, 180 mg/kg): 70% | Animals Not protected ([4]; oral, 180 mg/kg): 6 | Animals Protected ([4]; oral, 180 mg/kg): 14 | % Protection ([4]; oral, 240 mg/kg): 90% | Animals Not protected ([4]; oral, 240 mg/kg): 2 | Animals Protected ([4]; oral, 240 mg/kg): 18 | Animals Not protected, TOTALS ([4]; oral): 35 | Animals Protected, TOTALS ([4]; oral): 45 | Point score (mucosa; 60 mg/kg/day): 2 | Point score (mucosa; 120 mg/kg/day): 7 | Point score (mucosa; 240 mg/kg/day): 14

CC(=O)Oc1ccccc1C(=O)O [Aspirin, reference compound]
% Increase of Reaction time ([2]; oral, 120 mg/kg): 22.7% | Reaction time Half ± SEM ([2]; oral, 120 mg/kg): 126.8 ± 13.7 s | % Increase of Reaction time ([2]; oral, 180 mg/kg): 57.4% | Reaction time Half ± SEM ([2]; oral, 180 mg/kg): 162.6 ± 8.0 s | % Increase of Reaction time ([2]; oral, 240 mg/kg): 69.5% | Reaction time Half ± SEM ([2]; oral, 240 mg/kg): 175.1 ± 5.9 s | ED50 ([2]; po): 173 mg/kg | ED50 ([4]; po): 115 mg/kg | % Protection ([4]; oral, 60 mg/kg): 13.3% | Animals Not protected ([4]; oral, 60 mg/kg): 13 | Animals Protected ([4]; oral, 60 mg/kg): 2 | % Protection ([4]; oral, 120 mg/kg): 53.3% | Animals Not protected ([4]; oral, 120 mg/kg): 7 | Animals Protected ([4]; oral, 120 mg/kg): 8 | % Protection ([4]; oral, 180 mg/kg): 73.3% | Animals Not protected ([4]; oral, 180 mg/kg): 4 | Animals Protected ([4]; oral, 180 mg/kg): 11 | % Protection ([4]; oral, 240 mg/kg): 93.3% | Animals Not protected ([4]; oral, 240 mg/kg): 1 | Animals Protected ([4]; oral, 240 mg/kg): 14 | Animals Not protected, TOTALS ([4]; oral): 25 | Animals Protected, TOTALS ([4]; oral): 35

CCCCC1C(=O)N(c2ccccc2)N(c2ccccc2)C1=O [Phenylbutazone, reference compound]
ED50 (granulation tissue): 264 mg/kg | % Inhibition (granulation tissue; 120 mg/kg): 15.65% | Weight of granulated tissue ± SEM (granulation tissue; 120 mg/kg): 167 ± 8.25 | % Inhibition (granulation tissue; 180 mg/kg): 35.35% | % Inhibition (granulation tissue; 240 mg/kg): 44.94% | Weight of granulated tissue ± SEM (granulation tissue; 240 mg/kg): 109 ± 8.77 | ED50 [3, 5]: 177 mg/kg | ED50 ([3]; Table 1, oral): 77.1 mg/kg | % Inhibition ([3]; Table 1, oral, 120 mg/kg): 56.08% | Increment of Edema ± SEM [3, 6]: 6.50 ± 1.02 | % Inhibition ([3]; Table 1, oral, 180 mg/kg): 64.86% | Increment of Edema ± SEM [3, 7]: 5.20 ± 0.41 | % Inhibition ([3]; Table 1, oral, 240 mg/kg): 70.94% | Increment of Edema ± SEM [3, 8]: 4.30 ± 0.89 | % Inhibition [3, 9]: 34.85% | Increment of Edema ± SEM [3, 10]: 10.00 ± 0.73 | % Inhibition [3, 11]: 42.28% | Increment of Edema ± SEM [3, 12]: 8.86 ± 0.36 | % Inhibition [3, 13]: 69.64% | Increment of Edema ± SEM [3, 14]: 4.66 ± 0.54 | % Inhibition ([3]; Table 3, I.P., 120 mg/kg): 45.36% | Increment of Edema ± SEM [3, 15]: 6.83 ± 0.94 | "+" animals, printed in place of increment of edema ([3]; ip, 240 mg/kg): + four animals | "+" animals, printed in place of increment of edema ([3]; ip, 360 mg/kg): + five animals | TD50 (Ulcerogenic assay): 226 mg/kg | Point score (mucosa; 60 mg/kg/day): 8 | Point score (mucosa; 120 mg/kg/day): 17 | Point score (mucosa; 240 mg/kg/day): 32
